In one data set the test system is CSC221 cells. As to the kind of experiment: Spheroid formation assay, CSC221. Type of data set: cell-based, human. The note with it: for spheroid formation, cotreatment with cetuximab: CSC221, 5 µM with cetuximab 10, 25, and 50 µg/mL, 2 weeks; for spheroid formation: CSC221, up to 10 µM, 14 days, compared with TU and DA. The method, then:
Monolayer cells were separated into single‐cell suspensions at around 70% confluence using a solution of trypsin. After that, the cells were added to N2‐supplemented DMEM/F12 that contained human basal fibroblast growth factor and human recombinant epidermal growth factor. Cells seeded at a density of 5 × 10^3 cells/well in ultra‐low attachment 24‐well plates (Corning Inc., Corning, NY, USA). After 10–14 days of culture, spheres were quantitated by inverted phase contrast microscopy. The relative sphere formation ability was calculated through the IMT iSolution software (IMT iSolution Inc., Northampton, NJ, USA) measuring the pixel intensity of the sphere area randomly in each plate.

A further data set concerns CT26 cells. The data set can be described thus: MTT cell viability, CT26. Type of data set: cell-based. The note with it: Mus musculus, 48 h, MTT assay. The method, then: Cells (3 × 10^3 cells/well) were seeded on a 96‐well plate, grown overnight, and then treated with compounds at indicated concentrations for 48 h. After incubation with MTT for 4 h at 37°C, cells were lysed with 150 µL of DMSO (Sigma–Aldrich, St. Louis, USA). Absorbance was measured at 570 nm on a microplate reader with the Gen5 software (v.2.03.1; BioTek, Winooski, VT, USA).
On the technique in general: Formazan colour is commonly taken as a measure of viable cells.

Another data set concerns CRC cell lines. The data set can be described thus: Apoptosis / cell death analysis. Type of data set: cell-based, human. The method, then: Cells were cultured in a six‐well plate at the density of 2 × 10^5 cells/well until adherence. Cells were treated with DMSO or compound for 48 h. Apoptosis or cell cycle experiments were then performed. For apoptosis analysis, cells were harvested and washed with PBS, resuspended in 100 µL of 1× binding buffer followed by staining with 4 µL of Annexin V–FITC (BD, Biosciences, San Jose, CA, USA), and 8 µL of 50 µg/mL propidium iodide (PI; BD Biosciences, San Jose, CA, USA) for 30 min in the dark. For cell cycle analysis, cells were washed with FACS washing buffer, incubated with trypsin solution, followed by RNase A for 10 min at room temperature. Cells were centrifuged and pellets were collected and stained with 100 µL of 4 mg/mL PI (Sigma–Aldrich) for 2 h in the dark at 4°C. Cells were detected by flow cytometry on a CytoFLEX instrument (Beckman Coulter Life Sciences, Indianapolis, IN, USA).

Data set [1] in a line: Pharmacokinetic study in rat. Type of data set: in vivo, Sprague–Dawley rats. The note with it: male, Sprague-Dawley, plasma; for AUC(0-inf): read-out: AUCINF obs. The method, then:
The stock solution of SB4 and SB5 was prepared at a concentration of 1.0 mg/mL in DMSO. Additionally, the standard solutions for SB4 and SB5 were prepared by diluting with 60% ACN (0.1% formic acid) in distilled water (DW). The final concentrations of the prepared standard solutions were 5, 10, 25, 50, 100, 250, 500, and 1000 ng/mL, and they were prepared in 1.5 mL polyethylene microtubes (Axygen Inc., Union City, CA, USA). Furthermore, quality control samples were manufactured using DMSO, with final concentrations of 15 ng/mL (low quality control), 80 ng/mL (mid quality control), and 800 ng/mL (high quality control) using 60% ACN (0.1% formic acid) in DW. The IS solution (Deucravacitinib) was also prepared in DMSO and diluted to a final concentration of 10 ng/mL in 60% ACN (0.1% formic acid) in DW.
The sample stored at −80°C was dissolved at room temperature, vortexed for 3 s, and a protein precipitation method using ACN was employed. In a 1.5 mL polyethylene microtube, 10 µL of the IS (10 ng/mL) was added to 45 µL of plasma, and 500 µL of ACN was added. Next, the sample was mixed in a vortex (M37610‐33; Barnstead International, USA) for 3 min. Then, 500 µL of the supernatant was centrifuged at 10000 g for 10 min and transferred to a LC vial, from which 10 µL was injected into the LC–MS/MS system.
The LC–MS/MS system comprises a SCIEX Triple Quad 6500+ system (Melbourne, Australia) coupled with a Shimadzu Nexera series SCL‐40 system controller, DGU‐405 degassing unit, LC‐40D X3 solvent delivery module, SIL‐40C X3 autosampler, and CTO‐40C column oven (Melbourne, Australia).
Chromatographic separations were performed using a Synergi 4 µm Hydro‐RP 80 Å, LC Column (30 × 2 mm). The mobile phase consisted of 0.1% FA in DW and ACN in 0.1% FA. The optimal flow rate was 0.5 mL/min, and the linear gradient elution profile was as follows: 0–0.5 min 20% B, 0.5–1.0 min 80% B, 1.0–2.0 min 80% B, 2.0–2.5 min 20% B, 2.5–3.0 min 20% B. The injection volume was 5 µL, and the total analysis time per sample was 3.0 min. The column oven temperature was maintained at 40°C.
The sample was ionized by an electrospray ionization source. The mass spectrometer was operated in positive ion mode with MRM scan mode for high sensitivity and selectivity. The turbo ion gas temperature was set at 400°C. To optimize the source parameters and compound parameters, a standard solution of 10 ng/mL was injected into the mass spectrometer at a rate of 7 µL/min through an infusion pump. The MRM transitions selected for quantification were m/z 375.075 to 150.100 for DA, m/z 447.113 to 415.200 for SB‐04, m/z 461.119 to 429.100 for SB‐05, and m/z 426.093 to 358.000 for the IS (Deucravacitinib). The system operating programs were Analyst software (version 1.7.2) and Chromelon.
The animal testing procedure was approved by the Animal Management Committee of Dankook University (21‐038). Seven‐week‐old male Sprague–Dawley rats (weighing 250–290 g) were purchased from Samtaco Inc. (Osan, South Korea). All rats were housed randomly in groups of four, maintained under appropriate lighting and room conditions (22 ± 2°C, relative humidity 50 ± 10%, with a 12‐h light/dark cycle). Prior to the experiments, the rats had free access to food (Samtaco Inc.) and water in their cages. The animal experiments were conducted after a minimum environmental adaptation period of 1 week. On the day of the experiments, the jugular vein of each rat was cannulated individually with polyethylene tubing (Clay Adams, Parsippany, NJ, USA) under anesthesia. The cannula was exteriorized to the dorsal side of the neck, where the cannula terminated with a long silastic tubing (Dow Corning, Midland, MI, USA). The silastic tube was covered with a wire to allow free movement of the rat. Each rat was housed individually in a rat metabolic cage (Daejong Scientific Company, Seoul, Korea) and was allowed to recover from anesthesia for 4–5 h before the study began. The rats were not restrained during the experimental period. […]

Consider `COCCCOc1c(C)c(OC(=O)c2c(C)cc(OC)c(C)c2OC)cc(C)c1C(=O)OC` [SB5, 4-(Methoxycarbonyl)-3-(3-methoxypropoxy)-2,5-dimethylphenyl 2,4-dimethoxy-3,6-dimethylbenzoate], for which, in the data set on CSC221 cells, the “spheroid formation, cotreatment with cetuximab” value was “significantly reduced the adverse effects of cetuximab”; the spheroid formation result is “suppress spheroid formation more strongly than TU and DA”. Besides, in the data set with CT26 cells, the IC50 worked out at 2.27 µM. The “concentration with cell death ability” value in the data set on CRC cell lines is reported as around 10 µM. Further, in data set [1] (IP 10 mg/kg), the area under the curve AUC(0-t) was 108 ± 17.9 ng·h/mL, the maximum concentration (Cmax) amounted to 45.63 ± 0.31 ng/mL, the time to peak (Tmax) stood at 0.31 ± 0.13 h and the AUC(0-inf) is 209 ± 32.4 ng·h/mL. Also, in data set [1] (PO 10 mg/kg), the exposure AUC(0-t) came to 87.1 ± 11.8 ng·h/mL, the highest concentration (Cmax) was determined as 22 ± 8.01 ng/mL and the Tmax is 4.13 ± 2.59 h.
On to `COCCOc1c(C)c(OC(=O)c2c(C)cc(OC)c(C)c2OC)cc(C)c1C(=O)OC` [SB4, 4-(Methoxycarbonyl)-3-(2-methoxyethoxy)-2,5-dimethylphenyl 2,4-dimethoxy-3,6-dimethylbenzoate], for which, in the data set with CSC221 cells, the “spheroid formation, cotreatment with cetuximab” value is recorded as “significantly reduced the adverse effects of cetuximab”; the spheroid formation entry is “suppress spheroid formation more strongly than TU and DA”. Further, 5.33 µM corresponded to half-maximal inhibition with CT26 cells (IC50). Besides, in the data set with CRC cell lines, the “concentration with cell death ability” value is given as around 10 µM. Besides, in data set [1] (IP 10 mg/kg), the AUC(0-t) worked out at 173 ± 16.3 ng·h/mL, the Cmax came to 60.8 ± 18.2 ng/mL, the time of peak concentration (Tmax) was 0.31 ± 0.13 h and the AUC(0-inf) turned out to be 394 ± 172 ng·h/mL. For the same compound, in data set [1] (PO 10 mg/kg), the AUC(0-t) turned out to be 113 ± 19.2 ng·h/mL, the Cmax stood at 27.8 ± 14.7 ng/mL and the Tmax was determined as 2.88 ± 2.59 h.

Broadly, the IC50 is the concentration at which inhibition is half-maximal. Higher therefore signals a need for much substance. As a reminder, the AUC(0-t) is exposure summed from dosing to a finite time, without extrapolation to infinity. In general, Cmax refers to the maximum level reached in the sampled fluid or tissue. Usually Tmax stands for the time from dosing to the highest level.

The values are drawn from paper PMC12579162, “Synthesized Depside Molecules Suppress the Progression of Colorectal Cancer by Binding VDAC1/PHB/MMP9 Being at the Crossroads of Stemness, Motility, Apoptosis, and Metabolism” (MedComm, 2025).
